# Laboratory results: patent US6403642B1, “Sulfur adsorbent for reducing onion or garlic breath odor” (PQ Holding, Inc., priority 1999, dated 2002)
# Legend:
# [1] = Sulfur compound adsorption in the presence of mint oil (sniff test), propane thiol; details: Propane thiol 5 ppb (w/v), mint oil 50 ppb, adsorbent 0.1% w/v, 20 minutes of shaking, sniffed
# Protocol: (§1) All dilution operations were done using water under nitrogen in capped bottles. Hydrogen sulfide was measured as a gas in a syringe and injected into a sealed bottle containing deoxygenated water. The concentration (ppb w/w) was calculated assuming all of the hydrogen sulfide (H2S) dissolved in the water after shaking, and using the density of the gas.
# (§2) All of the liquid compounds were handled by syringe. Concentrations of thiols are reported assuming that their specific gravity is 1. Adsorbents, as made by Example 1, were weighed as dry powders into bottles before sealing and before the addition of room temperature dilute sulfide solution. After 20 minutes of shaking, the bottle was unsealed and the contents carefully sniffed.
# (§3) The object of the experiment was to remove the thiol odor but not to remove the mint oil aroma.
# [2] = Activity of metal complexes in removing garlic odor (sniffed for residual odor); design: key: ++: complete odor removal; +: slight odor remaining; −: no odor removal; NA: complex was not insoluble; ?: allyl mercaptan smell masked by methionine smell; details: 5 ml solution with 627 nmol allyl mercaptan in water, sealed vial, 10 minutes, room temperature
# Protocol: Each amino acid solution was made by dissolving 2.74 g of the amino acid into 40 ml of water. The complex with the metal was synthesized as described in the second step of Example 1.
# Odor removal was tested using 5 ml of a solution containing 627 nmol of allyl mercaptan in water. A suspension of the metal complex was mixed with the mercaptan solution, reacted in a sealed vial for 10 minutes at room temperature, and then sniffed for residual odor.
# [3] = Sulfur compound adsorption in the presence of mint oil (sniff test), hydrogen sulfide; details: H2S 50 ppb, mint oil 50 ppb, adsorbent 0.1% w/v, 20 minutes of shaking, sniffed
# Protocol: as §1, §2, §3
# [4] = Sulfur compound adsorption in the presence of mint oil (sniff test), diallyl disulfide; details: Diallyl disulfide 5 ppb (w/v), mint oil 50 ppb, adsorbent 0.1% w/v, 20 minutes of shaking, sniffed
# Protocol: as §1, §2, §3
# [5] = Sulfur compound adsorption in the presence of mint oil (sniff test), allyl mercaptan; details: Allyl mercaptan 5 ppb (w/v), mint oil 50 ppb, adsorbent 0.1% w/v, 20 minutes of shaking, sniffed
# Protocol: as §1, §2, §3
substance,measurement,setting,value
Cystine-copper Complex,"Smell Garlic, Effect",[1],Faint
same,Activity in removing garlic odor,[2],++
same,"Smell Garlic, Effect",[3],None
same,"Smell Mint, Effect",[3],strong
same,"Smell Garlic, Effect",[4],v. weak
same,"Smell Garlic, Effect",[5],v. faint
